Results: US10888551B2, “Drug delivery system” (Indian Institute of Technology, Bombay, priority 2016, dated 2021)
Structures can show the parent of a compound that is named as a salt.

Tested on: KB cells
Experiment: Cell migration wound healing assay
Type: cell-based, Human
Details: 10 μM, 9 hours

CNC(=O)c1cc(Oc2ccc(NC(=O)Nc3ccc(Cl)c(C(F)(F)F)c3)cc2)ccn1 [Sraf, Sorafenib tosylate]
retardation of migration of KB cells: 30±9%
width of the wound (control 525±23 μm at 0 h): 303±27 μm
